The values below come from US8394759B2, “Transdermal delivery of medicaments with combinations of cetylated fatty ester penetrant complexes” (Cymbiotics, Inc., priority 2008, dated 2013).

For data set [1] the following is noted: oral; cited from earlier work.
The next data set deals with patients. The following applies: oral formulations; cited from earlier work.
The conditions of data set [2]: oral; cited from earlier work. This is another data set of the same source.
Data set [3] can be described thus: Permeation in the CFEP formulations. The following applies: in any of the three formulations of Example 3.
The subject of another data set is arthritic patients. Put plainly: Topical cetylated fatty ester complexes with rubefacients versus placebo base, joint functionality and pain. The class given is in vivo, human. The following applies: eucalyptus oil 1% to 5%, camphor 1-7% in the carrier formulation. The text has this:
The composition of the invention provides for the administration of permeants with anti-arthritic properties. A topical application consisting of the cetylated fatty ester complexes in concentrations of 5% to 20% with rubefacients (such as methyl salicylate, menthol and for some variations capsaicin can be applied to affected areas of arthritic patients). The permeants were at concentrations ranging from 1-30%. The carrier formulation consisted of a penetrant group of 8 cetyl fatty esters (4-9%; cetyl decanoate, cetyl laurate, cetyl myristate, cetyl myristoleate, cetyl oleate, cetyl palmitate, cetyl palmitoleate and cetyl stearate) with propylene glycol as the polar solvent (12%), in the described cream base at a pH of 6.5. One variation of carrier formulation is also an anti-inflammatory and is used topically to treat joint pain and musculoskeletal pain and other types of pains in arthritis (Kraemer W J et al. 2004 J Rheumatology 31:767-74; Kraemer W J et al. 2005 J Strength and Conditioning Res 19: 475-80 and Sharan et al. 2009, submitted for publication), The preferred polar solvent is propylene glycol. […]

The test system of the next data set is mouse skin. Briefly: Transdermal diazepam in CFEP-Complex formulation delivered to mouse skin. The class given is in vivo. The following applies: single application to mouse skin in 4-9% CFEP-Complex formulation; preliminary, 'may provide'. The procedure: A formulation for transdermal delivery is a novel format for diazepam or lorazepam or clonazepam, and utilizes the lipophilic properties of each molecule. In one example diazepam is administered in 3 doses, namely 10 mg/gram, 25 mg/gram and 50 mg/gram using a 4-9% CFEP-Complex carrier formulation consisting of cetyl decanoate, cetyl laurate, cetyl myristate, cetyl myristoleate, cetyl oleate, cetyl palmitate, cetyl palmitoleate and cetyl stearate. The polar solvent used is propylene glycol (12%) in the described cream base at a pH of 6.5. A pH range of 6-7 is effective and tocopherol acetate is the antioxidant at 1%. […] The permeant is first finely emulsified in the CFEP-Complex and polar solvent prior to addition of the cream base. A single application of diazepam delivered to mouse skin in this formulation may provide pronounced activity for 5-8 hours. […] Pregabalin in a topical format is also an excellent anti-convulsant and useful in the treatment of seizure already described in examples 4 and 5 above.

For data set [4] the following is noted: free base; cited from earlier work.
For data set [5] the following is noted: intravenous injection, 5 mg; cited from earlier work.

On to `CC(C)C[C@H](CN)CC(=O)O` [Pregabalin], for which, in data set [1], the bioavailability result was “more than 90%”. Besides, the “adverse reactions such as drowsiness and dizziness, share of the patients” value in the data set with patients is “more than 10%”.
Consider `C/C1=C2/[N-][C@H]([C@H](CC(N)=O)[C@@]2(C)CCC(=O)NC[C@@H](C)OP(=O)([O-])O[C@H]2[C@@H](O)[C@@H](n3cnc4cc(C)c(C)cc43)O[C@@H]2CO)[C@]2(C)N=C(/C(C)=C3N=C(/C=C4N=C1[C@@H](CCC(N)=O)C\4(C)C)[C@@H](CCC(N)=O)[C@]\3(C)CC(N)=O)[C@@H](CCC(N)=O)[C@]2(C)CC(N)=O.[CH3-].[Co+3]` [methylcobalamin], for which the “rate of absorption by passive diffusion” value in data set [2] is 1-2 % of the ingested material.
As to `O=C(O)CCCCC1CCSS1` (stereo not drawn) [Alpha lipoic acid], the permeation result in data set [3] was “permeates well”.
`CC12CCC(CC1=O)C2(C)C` (centres unmarked) [camphor]: the “other rubefacients found to be effective” value in the data set on arthritic patients is listed as “effective”.
Consider `CN1C(=O)CN=C(c2ccccc2)c2cc(Cl)ccc21` [diazepam], for which the “duration of pronounced activity” value with mouse skin is 5 to 8 h.
`CNC1(c2ccccc2Cl)CCCCC1=O` (centres unmarked) [Ketamine, 2-(2-chlorophenyl)-2-(methylamino)-cyclohexanone]: in data set [4], the lipid solubility was 10 times that of thiopentone.
Usually Tmax stands for the time at which the peak concentration occurs. In the case of `CCN(CC)CC#CCOC(=O)C(O)(c1ccccc1)C1CCCCC1` (centres unmarked) [oxybutynin], the Tmax in data set [5] was 15 min.
